# Earlier results, collected in PMC6675714 (Cancer Medicine, 2019).
# Where two headings read alike, the source gives them in different places.
# How the values were obtained:
# advanced stages of CCRCC = conditions: chemo‐monotherapies; cited from earlier work
# Caki‐1 tumor = conditions: cited from earlier work; for T/C (tumor growth): same xenograft mice model (Caki‐1, NMRI:nu/nu)
# A431 tumor = tested on: A431 tumor; parameters: method as in PMID 28959398; conditions: A431 tumor‐bearing female BALB/cA.Cg‐Foxn1^nu/CrINarI; cited from earlier work
# H‐Ras/Raf‐1 interaction = tested on: H‐Ras/Raf‐1 interaction; parameters: method as in PMID 28959398; conditions: cited from earlier work
# [1] = Caki‐1 tumor‐bearing female NMRI:nu/nu mice
molecule,measurement,setting,value
O=c1[nH]cc(F)c(=O)[nH]1 [5‐FU],Response rate,advanced stages of CCRCC,~20%
same,Survival,advanced stages of CCRCC,15 months
[Cl][Au-][c]1n(Cc2ccccc2)c(-c2ccccc2)c(-c2ccccc2)[n+]1Cc1ccccc1 [NHC‐Au‐Cl],T/C (tumor growth),Caki‐1 tumor,47%
same,Side effects,Caki‐1 tumor; same xenograft mice model,no severe side effects
same,ki‐67 or CD31 markers,Caki‐1 tumor; same xenograft mice model,no decrease
CCCCCOC(=O)Nc1nc(=O)n([C@@H]2O[C@H](C)[C@@H](O)[C@H]2O)cc1F [capecitabine],Response rate,advanced stages of CCRCC,~20%
same,Survival,advanced stages of CCRCC,15 months
COc1ccc(C[c-]2cccc2)cc1.COc1ccc(C[c-]2cccc2)cc1.[Cl][V+2][Cl] [Vanadocene Y],Side effects,Caki‐1 tumor; [1],no severe side effects
CC(=O)OCC1OC([S][Au-][c]2n(Cc3ccccc3)c(-c3ccccc3)c(-c3ccccc3)[n+]2Cc2ccccc2)C(OC(C)=O)C(OC(C)=O)C1OC(C)=O (centres unmarked) [NHC‐AuSR],T/C (tumor growth),Caki‐1 tumor,47%
same,Side effects,Caki‐1 tumor; same xenograft mice model,no severe side effects
same,ki‐67 or CD31 markers,Caki‐1 tumor; same xenograft mice model,no decrease
[Ir(tpy)(dnbpy)],Tumor growth,A431 tumor,tumor growth inhibition
same,H‐Ras/Raf‐1 interaction,H‐Ras/Raf‐1 interaction,inhibiting
CCN(CC)c1ccc(C[c-]2cccc2)cc1.CCN(CC)c1ccc(C[c-]2cccc2)cc1.[Cl][Ti+2][Cl] [Titanocene Y*],Side effects,Caki‐1 tumor; [1],no severe side effects
same,Reduction of proliferation marker ki‐67,Caki‐1 tumor; Caki‐1 xenograft,21%
same,Vascularization,Caki‐1 tumor; Caki‐1 xenograft,decreased vascularization
same,Weight loss,Caki‐1 tumor; Caki‐1 xenograft,dose‐dependent weight loss
